From US20260070924A1, “INDAZOLE MACROCYCLES AND THEIR USE” (BLOSSOMHILL THERAPEUTICS, INC., priority 2022, published 2026) come the findings set out here.

pIC50: −log10 of the molar value. Where two headings read alike, the source gives them in different places.

Test [1] has as its system MV-4-11 cells. In words: MV-4-11 cell proliferation assay (CellTiter-Glo 2.0). The class given is cell-based. Particulars: MV-4-11, 384-well, 11-dose dilution series, read-out: IC50, inhibition of MV-4-11 cell proliferation. The procedure:
MV-4-11 cell line was purchased from ATCC and maintained in RPMI medium supplemented with 10% fetal bovine serum and 100 U/mL of penicillin/streptomycin. One thousand MV-4-11 cells/50 μl per well were seeded in white 384-well plate, followed by treatment with indicated compounds in a 11-dose dilution series. Cell proliferation was measured using CellTiter-Glo 2.0 luciferase-based ATP detection assay (Promega, Madison, WI) following the manufacturer's protocol. Plates were then read on a TECAN Sparks multimode microplate reader. Data was analyzed using GraphPad Prism 9 (GraphPad Software, San Diego, CA) to obtain IC50 values.

The target of test [2] is CLK1 (Homo sapiens (Human), UniProt P49759). In words: CLK kinase activity assay (ADP-Glo). It is filed as biochemical. As to the method: (§1) Kinase protein and substrate were pre-diluted in the HEPES assay buffer (100 mM HEPES, pH 7.5, 0.01% Triton X-100, 0.1% BSA, 5 mM MgCl2, 1 mM DTT, 10 μM Sodium Orthovanadate, 10 μM Beta-Glycerophosphate) dispensed into 384 well plate (5 μL per well). Control samples (0%-inhibition in the absence of inhibitor, DMSO only) and 100%-inhibition (in the absence of enzyme) were assembled in replicates of six and were used to calculate %-inhibition in the presence of compounds. Test compounds were added to the protein samples by acoustic dispensing (Labcyte Echo550). Concentration of DMSO was equalized to 1% in all samples. Reactions were initiated by addition of ATP by acoustic dispensing (Labcyte Echo550) and incubated according to assay specific incubation time. After incubation, 5 uL of Promega ADP-Glo reagent was added and incubated for 40 minutes. After 40 minutes, 10 uL of Promega kinase detection reagent was added. After 10 min of incubation with Kinase detection reagent, the luminescence was read on microplate reader (Biotek Synergy).
Background: ADP-Glo first removes unused ATP, then detects ADP through luciferase.

Test [3] deals with CLK2 (Homo sapiens (Human), UniProt P49760). In words: CLK kinase activity assay (ADP-Glo). The class given is biochemical. As to the method: as §1
The target of test [4] is CLK3 (Homo sapiens (Human), UniProt P49761). In words: CLK kinase activity assay (ADP-Glo). It is filed as biochemical. The procedure: as §1
Test [5] deals with CLK4 (Homo sapiens (Human), UniProt Q9HAZ1). In words: CLK kinase activity assay (ADP-Glo). The class given is biochemical. The procedure:
as §1

The target of test [6] is FLT3 (Homo sapiens (Human), UniProt P36888). In words: HotSpot radiometric kinase assay (Reaction Biology). It is filed as biochemical.
Experimental: (§2) Briefly, specific kinase/substrate pairs along with required cofactors were prepared in reaction buffer; 20 mM Hepes pH 7.5, 10 mM MgCl2, 1 mM EGTA, 0.02% Brij35, 0.02 mg/ml BSA, 0.1 mM Na3VO4, 2 mM DTT, 1% DMSO. Compounds were delivered into the reaction, followed ˜20 minutes later by addition of a mixture of ATP (Sigma, St. Louis MO) and ^33P ATP (Perkin Elmer, Waltham MA) to a final concentration of 10 M. Reactions were carried out at room temperature for 120 min, followed by spotting of the reactions onto P81 ion exchange filter paper (Whatman Inc., Piscataway, NJ). Unbound phosphate was removed by extensive washing of filters in 0.75% phosphoric acid. […] IC50 values and curve fits were obtained using Prism (GraphPad Software).
Test [7] addresses FLT3-ITD (Homo sapiens, UniProt P36888, ITD). The test is described as above. The class given is biochemical.
Experimental: as §2

Chain of CLK2 (P49760 whole entry): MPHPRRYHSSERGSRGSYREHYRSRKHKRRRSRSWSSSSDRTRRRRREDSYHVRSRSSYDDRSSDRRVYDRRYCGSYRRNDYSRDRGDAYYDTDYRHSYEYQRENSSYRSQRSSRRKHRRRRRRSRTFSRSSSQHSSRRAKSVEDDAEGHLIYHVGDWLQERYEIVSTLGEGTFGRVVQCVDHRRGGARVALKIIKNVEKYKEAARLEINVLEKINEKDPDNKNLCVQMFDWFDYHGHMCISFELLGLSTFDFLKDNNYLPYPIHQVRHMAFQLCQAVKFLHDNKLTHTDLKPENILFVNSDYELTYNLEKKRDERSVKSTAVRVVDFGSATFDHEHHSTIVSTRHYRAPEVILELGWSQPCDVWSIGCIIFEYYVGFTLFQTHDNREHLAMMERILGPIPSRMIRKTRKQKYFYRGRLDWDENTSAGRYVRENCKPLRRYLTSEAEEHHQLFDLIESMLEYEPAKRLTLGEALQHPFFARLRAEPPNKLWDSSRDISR
Chain of FLT3-ITD (P36888 whole entry, looked up, change not shown): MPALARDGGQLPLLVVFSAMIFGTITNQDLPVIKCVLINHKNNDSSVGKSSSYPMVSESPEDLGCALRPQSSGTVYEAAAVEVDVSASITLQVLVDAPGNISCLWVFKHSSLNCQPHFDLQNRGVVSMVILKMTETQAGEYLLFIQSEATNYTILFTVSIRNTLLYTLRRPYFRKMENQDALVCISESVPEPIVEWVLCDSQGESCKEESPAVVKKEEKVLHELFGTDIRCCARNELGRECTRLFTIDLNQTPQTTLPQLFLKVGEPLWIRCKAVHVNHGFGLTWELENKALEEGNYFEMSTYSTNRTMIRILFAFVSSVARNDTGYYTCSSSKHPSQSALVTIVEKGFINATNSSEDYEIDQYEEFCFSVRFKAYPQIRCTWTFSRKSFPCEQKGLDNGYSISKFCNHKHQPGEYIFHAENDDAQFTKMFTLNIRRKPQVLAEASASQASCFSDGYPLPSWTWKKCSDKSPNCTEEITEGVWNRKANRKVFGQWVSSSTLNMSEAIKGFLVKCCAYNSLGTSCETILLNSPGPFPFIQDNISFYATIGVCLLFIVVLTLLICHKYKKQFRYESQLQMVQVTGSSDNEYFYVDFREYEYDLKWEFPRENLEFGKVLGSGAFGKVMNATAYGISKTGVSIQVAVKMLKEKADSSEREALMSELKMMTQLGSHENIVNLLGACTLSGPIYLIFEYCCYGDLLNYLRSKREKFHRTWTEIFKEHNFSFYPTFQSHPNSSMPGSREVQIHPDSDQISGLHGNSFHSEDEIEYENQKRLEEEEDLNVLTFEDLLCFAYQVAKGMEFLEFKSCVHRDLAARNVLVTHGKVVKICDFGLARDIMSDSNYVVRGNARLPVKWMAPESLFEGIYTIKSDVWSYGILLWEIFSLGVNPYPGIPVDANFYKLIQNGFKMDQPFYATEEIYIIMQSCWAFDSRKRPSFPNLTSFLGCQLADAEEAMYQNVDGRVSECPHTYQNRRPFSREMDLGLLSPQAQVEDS
Chain of CLK1 (P49759 whole entry): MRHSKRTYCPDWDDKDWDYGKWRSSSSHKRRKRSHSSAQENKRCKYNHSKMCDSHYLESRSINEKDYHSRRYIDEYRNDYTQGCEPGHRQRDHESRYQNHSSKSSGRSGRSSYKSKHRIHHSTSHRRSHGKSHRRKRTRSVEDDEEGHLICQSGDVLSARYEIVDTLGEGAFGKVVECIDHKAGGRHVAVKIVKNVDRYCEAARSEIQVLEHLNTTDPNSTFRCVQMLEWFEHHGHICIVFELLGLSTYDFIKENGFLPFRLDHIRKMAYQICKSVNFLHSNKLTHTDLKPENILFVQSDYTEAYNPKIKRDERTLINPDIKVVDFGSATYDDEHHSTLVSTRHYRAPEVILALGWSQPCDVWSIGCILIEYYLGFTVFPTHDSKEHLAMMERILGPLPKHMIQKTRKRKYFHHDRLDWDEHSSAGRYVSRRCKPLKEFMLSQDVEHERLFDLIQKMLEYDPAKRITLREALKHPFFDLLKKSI
Chain of CLK3 (P49761 whole entry): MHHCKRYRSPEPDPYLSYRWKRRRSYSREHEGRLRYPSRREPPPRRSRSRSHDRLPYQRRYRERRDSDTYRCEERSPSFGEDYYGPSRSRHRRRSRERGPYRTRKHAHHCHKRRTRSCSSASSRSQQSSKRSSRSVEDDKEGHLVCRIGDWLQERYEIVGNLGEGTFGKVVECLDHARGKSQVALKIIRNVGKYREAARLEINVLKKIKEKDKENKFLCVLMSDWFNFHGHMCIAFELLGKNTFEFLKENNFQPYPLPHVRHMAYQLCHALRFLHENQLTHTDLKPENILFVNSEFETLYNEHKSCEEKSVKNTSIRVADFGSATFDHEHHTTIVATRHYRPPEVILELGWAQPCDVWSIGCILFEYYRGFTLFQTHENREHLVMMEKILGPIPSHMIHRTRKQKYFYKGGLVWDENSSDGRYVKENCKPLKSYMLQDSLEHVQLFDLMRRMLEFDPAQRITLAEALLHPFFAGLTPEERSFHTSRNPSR
Chain of CLK4 (Q9HAZ1 whole entry): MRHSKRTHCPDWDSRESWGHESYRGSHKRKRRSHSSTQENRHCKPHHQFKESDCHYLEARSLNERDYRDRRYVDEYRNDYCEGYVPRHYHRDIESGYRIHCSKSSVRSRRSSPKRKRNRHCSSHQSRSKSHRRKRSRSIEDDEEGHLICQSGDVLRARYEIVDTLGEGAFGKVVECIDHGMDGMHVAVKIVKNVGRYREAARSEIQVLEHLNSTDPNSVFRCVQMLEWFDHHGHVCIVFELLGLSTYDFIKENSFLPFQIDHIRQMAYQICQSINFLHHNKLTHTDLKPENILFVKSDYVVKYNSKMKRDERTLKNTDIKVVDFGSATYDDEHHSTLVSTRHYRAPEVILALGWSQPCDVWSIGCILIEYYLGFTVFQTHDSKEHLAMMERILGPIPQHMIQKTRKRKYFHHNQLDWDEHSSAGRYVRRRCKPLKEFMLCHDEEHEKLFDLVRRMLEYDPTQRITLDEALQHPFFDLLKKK
Chain of FLT3 (P36888 27-993): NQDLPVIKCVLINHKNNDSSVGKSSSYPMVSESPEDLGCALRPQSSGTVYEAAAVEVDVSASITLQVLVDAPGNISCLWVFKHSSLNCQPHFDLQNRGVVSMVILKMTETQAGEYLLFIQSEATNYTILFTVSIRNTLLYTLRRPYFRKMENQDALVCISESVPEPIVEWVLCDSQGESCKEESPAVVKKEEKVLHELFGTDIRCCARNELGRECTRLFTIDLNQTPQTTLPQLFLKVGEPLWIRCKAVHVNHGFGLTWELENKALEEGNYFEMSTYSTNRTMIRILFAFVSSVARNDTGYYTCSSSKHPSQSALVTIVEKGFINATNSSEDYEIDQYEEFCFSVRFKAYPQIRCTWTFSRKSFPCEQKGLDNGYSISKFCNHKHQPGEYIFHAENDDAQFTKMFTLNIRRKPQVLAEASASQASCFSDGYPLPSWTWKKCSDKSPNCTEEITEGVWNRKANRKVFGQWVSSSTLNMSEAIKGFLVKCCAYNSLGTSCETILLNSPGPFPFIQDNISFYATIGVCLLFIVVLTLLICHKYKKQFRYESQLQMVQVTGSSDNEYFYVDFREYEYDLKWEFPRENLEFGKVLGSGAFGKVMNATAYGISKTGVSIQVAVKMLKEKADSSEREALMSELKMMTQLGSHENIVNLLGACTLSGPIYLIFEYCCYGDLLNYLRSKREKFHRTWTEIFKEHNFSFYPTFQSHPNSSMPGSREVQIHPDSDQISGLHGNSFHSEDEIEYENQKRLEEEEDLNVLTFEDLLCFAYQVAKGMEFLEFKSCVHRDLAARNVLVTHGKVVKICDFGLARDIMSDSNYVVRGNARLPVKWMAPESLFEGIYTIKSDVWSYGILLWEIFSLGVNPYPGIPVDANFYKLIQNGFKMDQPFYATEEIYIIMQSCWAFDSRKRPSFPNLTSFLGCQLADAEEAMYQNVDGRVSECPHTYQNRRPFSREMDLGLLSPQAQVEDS

For the compound `CCc1c2c(nn1C)C(=O)N(C)CCOc1ccc(F)cc1-c1ccc3[nH]nc(c3c1)/C=C/2` [Ex. 1, (18E)-17-ethyl-7-fluoro-13,16-dimethyl-2,12,13,16-tetrahydro-3,5-ethenodipyrazolo[3,4-f:3′,4′-j][1,4]benzoxazacyclopentadecin-14(11H)-one], in test [1] (Homo sapiens, MV4-11), the pIC50 is 5.93.

In the case of `CCc1nn(C)c2c1/C=C/c1n[nH]c3ccc(cc13)-c1cc(F)ccc1OCCN(C)C2=O` [Ex. 2, (18E)-17-ethyl-7-fluoro-13,15-dimethyl-2,12,13,15-tetrahydro-3,5-ethenodipyrazolo[3,4-f:3′,4′-j][1,4]benzoxazacyclopentadecin-14(11H)-one], the pIC50 in test [1] (Homo sapiens, MV4-11) was 6.45.

For the compound `Cc1c2c(nn1C)C(=O)NCCOc1c(cnn1C)-c1ccc3[nH]nc(c3c1)/C=C/2` [Ex. 10, (17E)-8,15,16-trimethyl-2,11,12,15-tetrahydro-8H-3,5-ethenotripyrazolo[3,4-f:3′,4′-j:4″,3″-n][1,4]oxazacyclopentadecin-13(10H)-one], the pIC50 in test [1] (Homo sapiens, MV4-11) was 6.06.

In the case of `Cc1nn(C)c2c1/C=C/c1n[nH]c3ccc(cc13)-c1cnn(C)c1OCCCN(C)C2=O` [Ex. 13, (18E)-8,13,15,17-tetramethyl-2,10,11,12,13,15-hexahydro-3,5-ethenotripyrazolo[3,4-g:3′,4′-k:4″,3″-o][1,5]oxazacyclohexadecin-14(8H)-one], in test [1] (Homo sapiens, MV4-11), the pIC50 was 7.81.

On to `Cc1nn(C)c2c1/C=C/c1n[nH]c3ccc(cc13)-c1cnn(C)c1CN(C)CCN(C)C2=O` [Ex. 15, (18E)-8,10,13,15,17-pentamethyl-2,8,9,10,11,12,13,15-octahydro-14H-3,5-ethenotripyrazolo[3,4-f:3′,4′-j:4″,3″-n][1,4]diazacyclohexadecin-14-one], for which the pIC50 in test [2] was 9.80; in test [3], 9.79; in test [4], 8.56; in test [5], 9.28; in test [1] (Homo sapiens, MV4-11), 8.34.

As for `Cc1nn(CCO)c2c1/C=C/c1n[nH]c3ccc(cc13)-c1cnn(C)c1OCCN(C)C2=O` [Ex. 16, (17E)-14-(2-hydroxyethyl)-8,12,16-trimethyl-2,11,12,14-tetrahydro-8H-3,5-ethenotripyrazolo[3,4-f:3′,4′-j:4″,3″-n][1,4]oxazacyclopentadecin-13(10H)-one], the pIC50 in test [2] was 9.52; in test [3] it was 9.80; in test [4], 7.98; in test [5], 9.12; in test [1] (Homo sapiens, MV4-11), over 9.00.

For `Cc1nn(CCN2CCCC2)c2c1/C=C/c1n[nH]c3ccc(cc13)-c1cnn(C)c1OCCN(C)C2=O` [Ex. 18, (17E)-8,12,16-trimethyl-14-[2-(pyrrolidin-1-yl)ethyl]-2,11,12,14-tetrahydro-8H-3,5-ethenotripyrazolo[3,4-f:3′,4′-j:4″,3″-n][1,4]oxazacyclopentadecin-13(10H)-one], the pIC50 in test [1] (Homo sapiens, MV4-11) is 7.75.

Consider `Cc1c2c(nn1CCN1CCCC1)C(=O)N(C)CCOc1c(cnn1C)-c1ccc3[nH]nc(c3c1)/C=C/2` [Ex. 19, (17E)-8,12,16-trimethyl-15-[2-(pyrrolidin-1-yl)ethyl]-2,11,12,15-tetrahydro-8H-3,5-ethenotripyrazolo[3,4-f:3′,4′-j:4″,3″-n][1,4]oxazacyclopentadecin-13(10H)-one], for which the pIC50 in test [6] is 9.25; in test [7], 8.98; in test [1] (Homo sapiens, MV4-11), 7.82.

On to `CCOc1nn(C)c2c1/C=C/c1n[nH]c3ccc(cc13)-c1cnn(C)c1OCCN(C)C2=O` [Ex. 22, (17E)-16-ethoxy-8,12,14-trimethyl-2,11,12,14-tetrahydro-8H-3,5-ethenotripyrazolo[3,4-f:3′,4′-j:4″,3″-n][1,4]oxazacyclopentadecin-13(10H)-one], for which the pIC50 in test [6] is 10.03; in test [7], 9.28; in test [2] it was 9.45; in test [3], 9.60; in test [4], 8.02; in test [5] it was 9.18. Besides, in test [1] (Homo sapiens, MV4-11), the pIC50 is over 9.70.

`CCc1nn(C)c2c1/C=C/c1n[nH]c3ccc(cc13)-c1cnn(C)c1O[C@@H](C)CN(C)C2=O` [Ex. 23, (10S,17E)-16-ethyl-8,10,12,14-tetramethyl-2,11,12,14-tetrahydro-8H-3,5-ethenotripyrazolo[3,4-f:3′,4′-j:4″,3″-n][1,4]oxazacyclopentadecin-13(10H)-one]: the pIC50 in test [6] is 9.38; in test [7], 9.01; in test [2], 9.07; in test [3] it was 9.65; in test [4], 8.26; in test [5], 8.86. Besides, the pIC50 in test [1] (Homo sapiens, MV4-11) is 8.39.

Consider `CCc1noc2c1/C=C/c1n[nH]c3ccc(cc13)-c1cnn(C)c1OCCN(C)C2=O` [Ex. 25, (17E)-16-ethyl-8,12-dimethyl-2,8,11,12-tetrahydro-3,5-etheno[1,2]oxazolo[5,4-f]dipyrazolo[3,4-j:4′,3′-n][1,4]oxazacyclopentadecin-13(10H)-one], for which the pIC50 in test [1] (Homo sapiens, MV4-11) was 9.28.

`CCOc1nn(CCO)c2c1/C=C/c1n[nH]c3ccc(cc13)-c1cnn(C)c1OCCN(C)C2=O` [Ex. 27, (17E)-16-ethoxy-14-(2-hydroxyethyl)-8,12-dimethyl-2,11,12,14-tetrahydro-8H-3,5-ethenotripyrazolo[3,4-f:3′,4′-j:4″,3″-n][1,4]oxazacyclopentadecin-13(10H)-one]: the pIC50 in test [2] was 8.81; in test [3], 8.95; in test [4], 6.97; in test [5], 8.52; in test [1] (Homo sapiens, MV4-11), 8.12.

As for `CN1CCOc2c(cnn2C)-c2ccc3[nH]nc(c3c2)/C=C/c2cn(C)nc2C1=O` [compound 4, (17E)-8,12,15-trimethyl-2,11,12,15-tetrahydro-8H-3,5-ethenotripyrazolo[3,4-f:3′,4′-j:4″,3″-n][1,4]oxazacyclopentadecin-13(10H)-one], the pIC50 in test [1] (Homo sapiens, MV4-11) was 7.67.

Turning to `CCc1c2c(nn1C)C(=O)N(C)CCOc1ccc(F)cc1-c1cc(Cl)c3[nH]nc(c3c1)/C=C/2` [compound 5, (18E)-21-chloro-17-ethyl-7-fluoro-13,16-dimethyl-2,12,13,16-tetrahydro-3,5-ethenodipyrazolo[3,4-f:3′,4′-j][1,4]benzoxazacyclopentadecin-14(11H)-one], the pIC50 in test [1] (Homo sapiens, MV4-11) is under 5.00.

Consider `CCn1nc(C)c2c1C(=O)N(C)CCOc1c(cnn1C)-c1ccc3[nH]nc(c3c1)/C=C/2` [compound 11, (17E)-14-ethyl-8,12,16-trimethyl-2,11,12,14-tetrahydro-8H-3,5-ethenotripyrazolo[3,4-f:3′,4′-j:4″,3″-n][1,4]oxazacyclopentadecin-13(10H)-one], for which the pIC50 in test [1] (Homo sapiens, MV4-11) is over 9.70.

For `Cc1nn(C)c2c1/C=C/c1n[nH]c3ccc(cc13)-c1cnn(C)c1OCCOCCN(C)C2=O` [compound 14, (15E)-3,10,12,14-tetramethyl-5,6,9,10,12,18-hexahydro-3H-19,21-ethenotripyrazolo[3,4-i:3′,4′-m:4″,3″-q][1,4,7]dioxazacyclooctadecin-11(8H)-one], in test [1] (Homo sapiens, MV4-11), the pIC50 is 6.42.

`Cc1nn(C(C)C)c2c1/C=C/c1n[nH]c3ccc(cc13)-c1cnn(C)c1OCCN(C)C2=O` [compound 20, (17E)-8,12,16-trimethyl-14-(propan-2-yl)-2,11,12,14-tetrahydro-8H-3,5-ethenotripyrazolo[3,4-f:3′,4′-j:4″,3″-n][1,4]oxazacyclopentadecin-13(10H)-one]: the pIC50 in test [6] is 9.73; in test [7], 9.11; in test [1] (Homo sapiens, MV4-11), 8.96.

In the case of `[2H]C([2H])([2H])N1CCOc2c(cnn2C)-c2ccc3[nH]nc(c3c2)/C=C/c2c(CC)nn(C([2H])([2H])[2H])c2C1=O` [compound 21, (17E)-16-ethyl-8-methyl-12,14-bis[(^2H3)methyl]-2,11,12,14-tetrahydro-8H-3,5-ethenotripyrazolo[3,4-f:3′,4′-j:4″,3″-n][1,4]oxazacyclopentadecin-13(10H)-one], the pIC50 in test [1] (Homo sapiens, MV4-11) is over 9.70.

As to “(18E)-15-(2-hydroxyethyl)-8,10,13,17-tetramethyl-2,8,9,10,11,12,13,15-octahydro-14H-3,5-ethenotripyrazolo[3,4-f:3′,4′-j:4″,3″-n][1,4]diazacyclohexadecin-14-one [Ex. 26]”, the pIC50 in test [2] was 9.63; in test [3], 9.41; in test [4] it was 7.51; in test [5], 9.22; in test [1] it was 7.82.
